The results in this text go back to PubChem BioAssay AID1159563 (GlaxoSmithKline (GSK), 2015).

pIC50: −log10 of the molar value. Activity calls are given as the source filed them. No rule for the calls is given here.

This experiment concerns HepG2 cytotoxicity. Kind of experiment: human hepatoma cell viability loss – cytotoxicity control (AID 1159563).
As to `Cc1ccc(C)c(-n2nnnc2Sc2nc([N+](=O)[O-])nn2C)c1`, the IC50 – broadly, the midpoint of a concentration-inhibition curve – is > 100 µM (inactive).

For the molecule `O=C(Nc1ccccc1)Nc1nc(-c2ccccn2)cs1`, the negative logarithm of the IC50 (pIC50) (in general, the IC50 on a negative log10 scale, so that one unit is a factor of ten) was 4.60.

For `CN(Cc1ccc(C(N)=O)cc1)C(c1ccc(F)cc1)c1cccnc1` (stereo not drawn), the IC50 was > 100 µM (inactive).

In the case of `COc1ccc(S(=O)(=O)Nc2ccc(C(=O)Nc3nc(-c4ccccn4)cs3)cc2)cc1`, the pIC50 is 4.20.

As to `CCC(CC)C(=O)Nc1cccc(C(=O)Nc2nnc(C3CCCCC3)s2)c1`, the IC50 was > 100 µM (inactive).

Regarding `COc1ccc(-c2csc(NC(=O)c3ccc([N+](=O)[O-])s3)n2)cc1OC`, the pIC50 is 5.00.

Regarding `CCC1Oc2cc(S(=O)(=O)N(C)CC(=O)N3CCc4ccccc4C3)c(C)cc2NC1=O` (stereo not drawn), the IC50 was > 100 µM (inactive).

As for `O=C(c1cnn(-c2ccccc2)n1)N1CCCC(n2ccnc2)C1` (stereo not drawn), the IC50 is > 100 µM (inactive).

Take `CN1C(=O)c2ccccc2Sc2ccc(NC(=O)NCc3ccco3)cc21`: the IC50 was > 100 µM (inactive).

As to `O=C(NC(c1ccc(Cl)cc1)c1cnccn1)C1CCN(C(=O)Nc2cccc(C(F)(F)F)c2)CC1` (stereo not drawn), the IC50 is > 100 µM (inactive).

As to `CC1CCCN(S(=O)(=O)c2ccc(C(=O)Nc3nc(-c4ccccn4)cs3)cc2)C1` (stereo not drawn), the negative logarithm of the IC50 (pIC50) is 4.40.

Consider `COc1ccc(Oc2ccc(C(C)N(C)c3ncc4c(N)nc(N)nc4n3)cc2)cc1` (stereo not drawn), for which the pIC50 was 4.40.

Consider `O=C(CCCNC(=O)c1ccc(Cl)cc1)Nc1nc(-c2ccccn2)cs1`, for which the IC50 was > 100 µM (inactive).

As to `Cc1c(C#N)c([N+](=O)[O-])nn1Cc1cccc(Cl)c1Cl`, the pIC50 is 4.10.

`Cc1cc2cc(CNc3ccc4c(c3)OCO4)c(=O)n(CCO)c2cc1C`: the IC50 was > 100 µM (inactive).

Regarding `COc1cccc(NS(=O)(=O)c2ccc3[nH]cc(C(=O)NCCC(C)C)c(=O)c3c2)c1`, the pIC50 is 4.49.

With `O=C(Cc1ccccc1)Nc1ccccc1C(=O)Nc1nccs1`, the IC50 was > 100 µM (inactive).

Consider `O=C(COc1ncnc2cc([N+](=O)[O-])ccc12)NC(=O)NC1CCCCC1`, for which the IC50 was > 100 µM (inactive).

Turning to `Cc1cc(C)n(-c2nc(NC(C)(C)C)nc(N3CCOCC3)n2)n1`, the negative logarithm of the IC50 (pIC50) is 4.00.

For `CCOc1ccc(NC(=O)c2ccc(NC(=O)NC3CCCCC3)cc2)cc1`, the IC50 is > 100 µM (inactive).

`O=C1CCCCCC1(Cc1cnc[nH]1)c1ccc(Cl)cc1Cl` (stereo not drawn): the pIC50 is 4.10.

Take `COc1ccc(CNc2nsc3ccccc23)cc1OC`: the negative logarithm of the IC50 (pIC50) is 4.30.

On to `COc1ccccc1-c1c(C)[nH]c2nc(N)nc(C)c12`, for which the IC50 was > 100 µM (inactive).

Take `O=C(Cc1ccc2c(c1)CCC2)Nc1n[nH]c(-c2ccccn2)n1`: the negative-log IC50 (pIC50) was 4.30.

As for `Fc1ccc(OC2CC(NCc3cccc4cn[nH]c34)C2)cc1C(F)(F)F` (stereo not drawn), the pIC50 is 4.60.

As for `CCNc1cc(-c2ccccn2)nc(Nc2ccc(OC)cc2)n1`, the pIC50 was 4.40.

As for `CNS(=O)(=O)c1ccccc1Nc1nc(Nc2ccnn2C)ncc1Cl`, the pIC50 is 4.30.

`O=C(Cn1cnc2cc([N+](=O)[O-])ccc2c1=O)NCCc1ccc(Cl)cc1Cl`: the IC50 was > 100 µM (inactive).

Take `Cc1ccccc1OCC(=O)N1CCCN(c2cccnn2)CC1`: the IC50 was > 100 µM (inactive).

`O=C(CN1CCN(S(=O)(=O)c2cccc([N+](=O)[O-])c2)CC1)Nc1ccc(Oc2ccccc2)cc1`: the IC50 was > 100 µM (inactive).

Regarding `COc1ccnc2[nH]cc(-c3cc(C(=O)N[C@H](CO)c4ccccc4)co3)c12`, the pIC50 is 4.80.

Turning to `CC(C)Nc1nccc(-c2c(-c3ccc(F)cc3)ncn2C2CCOCC2)n1`, the IC50 was > 100 µM (inactive).

As for `CN(CC1CCCO1)S(=O)(=O)c1ccc(C(=O)Nc2nc(-c3ccccn3)cs2)cc1` (stereo not drawn), the negative logarithm of the IC50 (pIC50) was 4.20.

As for `CC(C)CC(=O)Nc1cc(C2CC2)nn1-c1nc2c(c(=O)[nH]1)CCCC2`, the IC50 is > 100 µM (inactive).

In the case of `O=C(Nc1nc(-c2ccccn2)cs1)C1CCc2ccccc2C1` (stereo not drawn), the negative logarithm of the IC50 (pIC50) is 4.40.

For `COc1ccc2nc(N(Cc3cccnc3)C(=O)C3CCC3)sc2c1`, the IC50 was > 100 µM (inactive).

For `O=C(NC(CO)c1ccc(F)cc1)c1ccc(-c2c[nH]c3ncccc23)s1` (stereo not drawn), the pIC50 was 4.40.

For `COc1ccc(OC)c(NC(=O)c2ccc([N+](=O)[O-])o2)c1`, the pIC50 is 4.70.

As for `CN(Cc1nc2c(C(=O)N3CCN(Cc4ccccc4)CC3)cccc2[nH]1)C1CCCc2cccnc21` (stereo not drawn), the negative logarithm of the IC50 (pIC50) is 4.89.

For `COc1ccc(-c2cnc(NC(=O)c3cc(-c4ccccn4)n[nH]3)n2C)cc1`, the IC50 was > 100 µM (inactive).

`Cc1nn(-c2nc(N)nc(-c3ccccn3)n2)c(N)c1-c1ccccc1`: the pIC50 was 4.20.

Consider `Cc1[nH]n2c(=O)c3c(nc2c1-c1ccc(Cl)cc1)CCCC3`, for which the IC50 is > 100 µM (inactive).

As to `O=C(CSc1nnc(-c2ccc3c(c2)OCO3)o1)N(Cc1ccco1)CC(F)(F)F`, the IC50 was > 100 µM (inactive).

For `O=C(Cn1cnc([N+](=O)[O-])n1)Nc1ccc(Cl)cc1C(=O)c1ccccc1`, the IC50 was > 100 µM (inactive).

`C[C@@H](Oc1cc(-n2cnc3ccc(O[C@H]4CCNC4)cc32)sc1C(N)=O)c1ccccc1Cl`: the negative logarithm of the IC50 (pIC50) was 4.80.

On to `Cc1ccc2nc(N(Cc3cccnc3)C(=O)CCc3ccccc3)sc2c1`, for which the IC50 was > 100 µM (inactive).

Take `N#Cc1cc(N2CCCC2=O)ccc1Sc1ccccc1CO`: the IC50 was > 100 µM (inactive).

As for `COc1ccc(C2CC(c3ccc(NS(C)(=O)=O)cc3)=NN2C(=O)c2cccs2)cc1OC` (stereo not drawn), the IC50 is > 100 µM (inactive).

Turning to `Cc1ccc(S(C)(=O)=O)cc1Nc1nccc(-c2sc(N)nc2-c2ccccc2)n1`, the negative-log IC50 (pIC50) was 4.49.

Regarding `N#Cc1cnc(Nc2cccc(CCN3CCOCC3)c2)nc1Nc1ccccc1C(N)=O`, the negative logarithm of the IC50 (pIC50) is 4.60.

For `O=C(O)[C@H]1C[C@@H]1c1ccc(-c2ccc(CN(CCc3ccccn3)C(=O)C3CCC3)cc2)cc1`, the IC50 is > 100 µM (inactive).

In the case of `O=C(Nc1cccc(Cl)c1)N1CCCCC1c1cccnc1` (stereo not drawn), the IC50 was > 100 µM (inactive).

Regarding `Cc1nccn1C1CCCN(C(=O)c2cc3c(F)cccc3s2)C1` (stereo not drawn), the IC50 was > 100 µM (inactive).

For `CCOc1ccc(N(C)S(=O)(=O)c2ccc3[nH]cc(C(=O)NC4CCCC4)c(=O)c3c2)cc1`, the pIC50 is 4.30.

Consider `CCn1c(-c2nonc2N)nc2c([C@@H](C)O)ncc(O[C@H](CN)c3ccccc3)c21`, for which the negative logarithm of the IC50 (pIC50) is 4.10.

Consider `OCCCNc1nc(Nc2ccncc2)nc2ccccc12`, for which the IC50 was > 100 µM (inactive).

`COc1ncc(-c2ccc3nccc(-c4ccncc4)c3c2)cc1NS(C)(=O)=O`: the IC50 is > 100 µM (inactive).

As for `COc1ccc(C(C)N(C)c2ncc3c(N)nc(N)nc3n2)cc1F` (stereo not drawn), the IC50 was > 100 µM (inactive).

Consider `CC1=C(C(=O)Nc2ccc(Cl)cc2)C(c2ccncc2)n2ncc(C(=O)Nc3ccccc3)c2N1` (stereo not drawn), for which the pIC50 was 4.10.

With `NC(=O)c1ccsc1NC(=O)c1ccc([N+](=O)[O-])s1`, the IC50 was > 100 µM (inactive).

As to `N#Cc1cccc(CN2CCC(N(Cc3cccnc3)C(=O)c3cc(F)c(F)cc3F)CC2)c1`, the IC50 was > 100 µM (inactive).

On to `CCc1cccc(CC)c1-n1c(SCC(=O)NC(=O)NCc2ccco2)nnc1-c1cccnc1`, for which the IC50 is > 100 µM (inactive).

In the case of `CCCC(=O)N(Cc1ccccn1)c1nc2ccccc2s1`, the IC50 was > 100 µM (inactive).

With `Cc1cc(C)n(-c2nc(NC(C)C)nc(NC(C)(C)C)n2)n1`, the IC50 is > 100 µM (inactive).

Consider `Cc1cc2nc(N3CC[C@H]3C(N)=O)nc(Nc3cc(C4CC4)[nH]n3)c2s1`, for which the IC50 was > 100 µM (inactive).

For `Cc1ccccc1CNc1cc(C2CC2)nc(-c2nccn2C)n1`, the pIC50 was 4.80.

In the case of `CCn1c(NC(=O)Cc2ccc(F)cc2)nc2ccccc21`, the IC50 was > 100 µM (inactive).

As for `O=C(NC1CCN(C2Cc3ccc(NS(=O)(=O)c4cc(F)cc(F)c4)cc3C2)CC1)C1CC1` (stereo not drawn), the IC50 is > 100 µM (inactive).

Turning to `CCS(=O)(=O)Nc1ccc(C2=NN(C(=O)c3cccs3)C(c3ccccc3OC)C2)cc1` (stereo not drawn), the IC50 was > 100 µM (inactive).

`OCC1CCCCN1c1cc(-c2ccccn2)nc(Nc2ccccc2)n1` (stereo not drawn): the negative logarithm of the IC50 (pIC50) is 4.49.

As for `Cn1c(CN2CCN(c3ncc(C(F)(F)F)cc3Cl)CC2)nc2ccncc21`, the IC50 was > 100 µM (inactive).

Regarding `O=C(CN1CCC2(O)CCCCC2C1c1ccc2c(c1)OCO2)Nc1ccc(Cl)cc1Cl` (stereo not drawn), the IC50 is > 100 µM (inactive).

Consider `N#Cc1cc([N+](=O)[O-])ccc1NC1CCCCCC1`, for which the IC50 is > 100 µM (inactive).

For the molecule `O=c1oc2ccccc2n1C1CCN(Cc2ccccc2-c2cccnc2)CC1`, the IC50 is > 100 µM (inactive).

For `COc1ccc(-c2cnc(NC(=O)c3ccc(F)cc3)n2C)cc1`, the IC50 is > 100 µM (inactive).

`COc1ncc(-c2ccc3nccc(-c4ccncc4)c3c2)cc1NS(=O)(=O)C1CC1`: the IC50 is > 100 µM (inactive).

With `Cc1ccccc1NS(=O)(=O)c1ccc2[nH]cc(C(=O)NC3CCCCC3)c(=O)c2c1`, the negative logarithm of the IC50 (pIC50) was 4.49.

Take `CS(=O)(=O)N1CCC(Nc2ncc(Br)c(Nc3cccc(F)c3C(N)=O)n2)CC1`: the IC50 is > 100 µM (inactive).

Consider `CC(c1ccc2c(c1)CCCC2)N(C)c1ncc2c(N)nc(N)nc2n1` (stereo not drawn), for which the pIC50 was 4.30.

Turning to `COc1ccc(CN(C)Cc2ccncc2)cc1-c1ccc(S(=O)(=O)NC2CCC2)s1`, the IC50 is > 100 µM (inactive).

As to `CNC(=O)C1Cc2ccccc2N1C(=O)Cc1ccccc1` (stereo not drawn), the IC50 was > 100 µM (inactive).

Take `O=C(Nc1ccc(C(=O)N2CCCC2c2ccc3c(c2)OCCCO3)cc1)c1ccco1` (stereo not drawn): the IC50 is > 100 µM (inactive).

`O=C(CN(Cc1ccccn1)Cc1ccccn1)NCc1csc(-c2cccs2)n1`: the IC50 was > 100 µM (inactive).

In the case of `CCNc1cc(-c2ccccn2)nc(Nc2ccccc2)n1`, the pIC50 is 4.60.

Consider `CN(C)Cc1ccc(N2CCC(NS(=O)(=O)c3ccc(Cl)cc3)CC2)cc1`, for which the pIC50 was 4.30.

With `O=C(c1cccc(Cl)c1Cl)N1CCn2c1nc(-c1ccncc1)cc2=O`, the IC50 was > 100 µM (inactive).

On to `O=C(NCCc1ccccn1)C(c1cn[nH]c1)N1CCN(c2ccc(Cl)c(Cl)c2)CC1` (stereo not drawn), for which the IC50 was > 100 µM (inactive).

Regarding `O=c1[nH]ccc2ccc(-c3ccncc3)cc12`, the IC50 is > 100 µM (inactive).
